# Data taken from patent US9845297B2, “Antimicrobial compounds and methods of making and using the same” (Melinta Therapeutics, Inc., priority 2009, dated 2017).
# Test system: Eschericia coli strain ATCC25922
# Assay: standard microdilution assay to determine minimum inhibitory concentrations (MICs)
# Type: cell-based
# Conditions: Escherichia coli, ATCC25922, Eschericia coli strain ATCC25922, standard microdilution assay; read-out: E. coli ATCC25922 MIC
# Protocol: Minimum inhibitory concentrations (MICs) are determined by the microdilution method, typically in a final volume of 100 microliters, according to protocols outlined by The Clinical and Laboratory Standards Institute [CLSI; formerly the National Committee for Clinical Laboratory Standards (NCCLS)]. See CLSI: Methods for dilution antimicrobial susceptibility tests for bacteria that grow aerobically; approved standard-fifth edition. Wayne, Pa.: NCCLS; 2000. The assays can be also be performed in microtiter trays according to conventional methodologies as published by the CLSI. See CLSI. Methods for Dilution Antimicrobial Susceptibility Tests for Bacteria That Grow Aerobically; Approved Standard-Seventh Edition. CLSI Document M7-A7 [ISBN 1-56238-587-9] CLSI, 940 West Valley Road, Suite 1400, Wayne Pa. 19087-1898 USA, 2006).
# The compounds of the present invention were tested for antimicrobial activity. The compounds were run against Eschericia coli strain ATCC25922 using a standard microdilution assay to determine minimum inhibitory concentrations (MICs). […] A “N/A” means that data is unavailable. It will be recognized by one skilled in the art that the compounds can be assessed against other bacterial organisms and that the presentation of data for activity against Eschericia coli is illustrative and in no way is intended to limit the scope of the present invention. The compounds of the present invention can be assayed against a range of other microorganisms depending upon the performance activity desired to be gathered. Furthermore, the “+”, “−”, and “N/A” representation and the selection of a cutoff value of 16 micrograms/ml is also illustrative and in no way is intended to limit the scope of the present invention.
row,SMILES,MIC
1,NCCCNCc1ccc(-n2cc(F)c(N)nc2=O)cc1 [Compound 137],> 16 µg/mL
2,NCCCNCc1ccc(-n2cc(F)c(NC(N)=O)nc2=O)cc1 [Compound 138],> 16 µg/mL
3,NCc1ccc(-n2ccc(NC(N)=O)nc2=O)cc1 [Compound 139],> 16 µg/mL
4,NCc1cn(-c2ccc(-n3cnc(NC(N)=O)nc3=O)cc2)nn1 [Compound 140],> 16 µg/mL
5,N=C(N)NCc1cn(-c2ccc(-n3ccc(NC(N)=O)nc3=O)cc2)nn1 [Compound 141],> 16 µg/mL
6,NCCCN(CCCN)Cc1ccc(-n2cc(F)c(N)nc2=O)cc1 [Compound 143],> 16 µg/mL
7,NCCCNC(CCCN)c1ccc(-n2ccc(NC(N)=O)nc2=O)cc1 (stereo not drawn) [Compound 144],> 16 µg/mL
8,NCCCN(CCCN)Cc1ccc(-n2ccc(NC(N)=O)nc2=O)cc1 [Compound 145],> 16 µg/mL
9,NCCCC(N)c1ccc(-n2ccc(NC(N)=O)nc2=O)cc1 (stereo not drawn) [Compound 146],> 16 µg/mL
10,N=C(N)NCCC[C@@H](CCCn1ccc(NC(=O)NS(=O)(=O)c2ccc(F)cc2)nc1=O)NCCCN [Compound 147],> 16 µg/mL
11,N=C(N)NCCC[C@@H](CCCn1ccc(NC(=O)Nc2ccc(F)cc2)nc1=O)NCCCN [Compound 148],> 16 µg/mL
12,NCCCN(CCCN)Cc1ccc(-c2c[nH]c(NC(N)=O)nc2=O)cc1 [Compound 149],> 16 µg/mL
13,NC[C@@H](N)c1cn(-c2ccc(-n3ccc(NC(N)=O)nc3=O)cc2)nn1 [Compound 150],> 16 µg/mL
14,Cc1nc(-c2cccc(NC(=O)Nc3ccn(CCC[C@H](CCCNC(=N)N)NCCCN)c(=O)n3)c2)no1 [Compound 151],> 16 µg/mL
15,CN(C)c1ccc(NC(=O)Nc2ccn(CCC[C@H](CCCNC(=N)N)NCCCN)c(=O)n2)cc1 [Compound 152],> 16 µg/mL
16,NCCN(CCN)CCCN1CC=C(n2ccc(NC(N)=O)nc2=O)CC1 [Compound 153],> 16 µg/mL
17,N=C(N)NCCC[C@@H](CCCn1ccc(NC(=O)c2ccc(Cl)cc2)nc1=O)NCCCN [Compound 155],> 16 µg/mL
18,N=C(N)NCC(NCCCN)c1ccc(-n2ccc(NC(N)=O)nc2=O)cc1 (stereo not drawn) [Compound 156],> 16 µg/mL
19,Cn1nnc2cc(C(=O)Nc3ccn(CCC[C@H](CCCNC(=N)N)NCCCN)c(=O)n3)ccc21 [Compound 157],> 16 µg/mL
20,Cc1c(C(=O)Nc2ccn(CCC[C@H](CCCNC(=N)N)NCCCN)c(=O)n2)ccn1-c1ccc(Cl)cc1 [Compound 158],> 16 µg/mL
21,N=C(N)NCCC[C@@H](CCCn1ccc(NC(=O)Nc2ccc(F)cc2F)nc1=O)NCCCN [Compound 159],> 16 µg/mL
22,N=C(N)NCCC[C@@H](CCCn1ccc(NC(=O)Nc2ccc(F)c(F)c2)nc1=O)NCCCN [Compound 160],> 16 µg/mL
23,NCC[C@H](N)C(=O)N1CCN(C2C=NC(NC(N)=O)=NC2=O)CC1 (stereo partly drawn) [Compound 161],> 16 µg/mL

row,SMILES,MIC
1,NC[C@@H](N)C(=O)Nc1ccc(-c2c[nH]c(NC(N)=O)cc2=O)cc1 [Compound 162],> 16 µg/mL
2,Cn1ncc(C(=O)Nc2ccn(CCC[C@H](CCCNC(=N)N)NCCCN)c(=O)n2)c1Cl [Compound 163],< 16 µg/mL
3,N=C(N)NCCC[C@@H](CCCn1ccc(NC(=O)Nc2cc(F)c(F)cc2F)nc1=O)NCCCN [Compound 164],> 16 µg/mL
4,N=C(N)NCCC[C@@H](CCCn1ccc(NC(=O)Nc2ccc(C(F)(F)F)cc2)nc1=O)NCCCN [Compound 165],> 16 µg/mL
5,Cc1nc(-c2cccc(NC(=O)Nc3ccn(CCC[C@H](CCCNC(=N)N)NCCCN)c(=O)n3)c2)cs1 [Compound 166],> 16 µg/mL
6,Cc1nc(-c2cnccn2)sc1C(=O)Nc1ccn(CCC[C@H](CCCNC(=N)N)NCCCN)c(=O)n1 [Compound 167],> 16 µg/mL
7,N=C(N)NCCCN(CCCN)Cc1ccc(-c2c[nH]c(NC(N)=O)nc2=O)cc1 [Compound 168],< 16 µg/mL
8,N=C(N)NCCN(CCCN)Cc1ccc(-c2c[nH]c(NC(N)=O)nc2=O)cc1 [Compound 170],> 16 µg/mL
9,NCCCN(CCCN)Cc1ccc(-c2c[nH]c(NC(=O)Nc3ccc(F)c(F)c3)nc2=O)cc1 [Compound 171],> 16 µg/mL
10,NCCCN(CCCN)Cc1ccc(-c2c[nH]c(NC(=O)Nc3ccc(C(F)(F)F)cc3)nc2=O)cc1 [Compound 172],< 16 µg/mL
11,NCCCN(CCCN)Cc1ccc(-c2c[nH]c(NC(=O)c3ccc(Cl)cc3)nc2=O)cc1 [Compound 173],> 16 µg/mL
12,Cn1ncc(C(=O)Nc2nc(=O)c(-c3ccc(CN(CCCN)CCCN)cc3)c[nH]2)c1Cl [Compound 174],> 16 µg/mL
13,CSc1ccc(C(=O)Nc2ccn(CCCC(CCCNC(=N)N)NCCCN)c(=O)n2)cc1 (stereo not drawn) [Compound 175],> 16 µg/mL
14,CN(C)c1ccc(C(=O)Nc2ccn(CCCC(CCCNC(=N)N)NCCCN)c(=O)n2)cc1 (stereo not drawn) [Compound 176],< 16 µg/mL
15,COc1ccc(C(=O)Nc2ccn(CCCC(CCCNC(=N)N)NCCCN)c(=O)n2)cc1 (stereo not drawn) [Compound 177],> 16 µg/mL
16,NCCCN(CCCN)Cc1ccc(-c2c[nH]c(NC(=O)Nc3cc(F)c(F)cc3F)nc2=O)cc1 [Compound 178],> 16 µg/mL
17,CN1CCN(c2ccc(NC(=O)Nc3ccn(CCCC(CCCNC(=N)N)NCCCN)c(=O)n3)cc2)CC1 (stereo not drawn) [Compound 185],< 16 µg/mL
18,N=C(N)NCCCC(CCCn1ccc(NC(=O)Nc2ccc(N3CCCCC3)cc2)nc1=O)NCCCN (stereo not drawn) [Compound 186],> 16 µg/mL
19,N=C(N)NCCCC(CCCn1ccc(NC(=O)c2ccc(N3CCOCC3)nc2)nc1=O)NCCCN (stereo not drawn) [Compound 187],> 16 µg/mL
20,CN(C)c1ccc(NC(=O)Nc2nc(=O)c(-c3ccc(CN(CCCN)CCCN)cc3)c[nH]2)cc1 [Compound 188],> 16 µg/mL
21,N=C(N)NCCCC(CCCn1ccc(NC(=O)c2ccc(N3CCOCC3)cc2)nc1=O)NCCCN (stereo not drawn) [Compound 189],> 16 µg/mL
22,CN1CCN(c2ccc(C(=O)Nc3ccn(CCC[C@H](CCCNC(=N)N)NCCCN)c(=O)n3)cc2)CC1 [Compound 190],< 16 µg/mL
23,CN1CCN(c2ccc(NC(=O)Nc3nc(=O)c(-c4ccc(CN(CCCN)CCCN)cc4)c[nH]3)cc2)CC1 [Compound 191],< 16 µg/mL

row,SMILES,MIC
1,CC(N)(CO)C(=O)Nc1ccc(C(=O)Nc2ccn(CCC[C@H](CCCNC(=N)N)NCCCN)c(=O)n2)cc1 (stereo partly drawn) [Compound 199],< 16 µg/mL
2,NCCCN(CCCN)Cc1ccc(-c2c[nH]c(NC(=O)Cc3ccc(C(F)(F)F)cc3)nc2=O)cc1 [Compound 205],> 16 µg/mL
3,CN(C)CCN1CCN(c2ccc(NC(=O)Nc3ccn(CCCC(CCCNC(=N)N)NCCCN)c(=O)n3)cc2)CC1 (stereo not drawn) [Compound 208],< 16 µg/mL
4,CN1CCN(C2CCN(c3ccc(NC(=O)Nc4nc(=O)c(-c5ccc(CN(CCCN)CCCN)cc5)c[nH]4)cc3)CC2)CC1 [Compound 209],< 16 µg/mL
5,CN(C)CCN1CCN(c2ccc(NC(=O)Nc3nc(=O)c(-c4ccc(CN(CCCN)CCCN)cc4)c[nH]3)cc2)CC1 [Compound 210],< 16 µg/mL
6,CN(C)C(=O)CN1CCN(c2ccc(NC(=O)Nc3nc(=O)c(-c4ccc(CN(CCCN)CCCN)cc4)c[nH]3)cc2)CC1 [Compound 211],> 16 µg/mL
7,CN(C)CCN1CCN(c2ccc(C(=O)Nc3ccn(CCC[C@H](CCCNC(=N)N)NCCCN)c(=O)n3)cc2)CC1 [Compound 213],> 16 µg/mL
8,CN(C)C(=O)CN1CCN(c2ccc(NC(=O)Nc3ccn(CCC[C@H](CCCNC(=N)N)NCCCN)c(=O)n3)cc2)CC1 [Compound 214],> 16 µg/mL
9,CN1CCN(c2ccc(NC(=O)Nc3ccn(-c4ccc(CN(CCCN)CCCNC(=N)N)cc4)c(=O)n3)cc2)CC1 [Compound 222],< 16 µg/mL
10,N=C(N)NCCCN(CCCN)Cc1ccc(-n2ccc(NC(=O)Nc3ccc(F)c(F)c3)nc2=O)cc1 [Compound 223],> 16 µg/mL
11,NCc1ccc(-c2c[nH]c(NC(=O)Nc3cc(F)c(F)cc3F)nc2=O)cc1 [Compound 238],> 16 µg/mL
12,NCCCNCc1ccc(-c2c[nH]c(NC(=O)Nc3cc(F)c(F)cc3F)nc2=O)cc1 [Compound 239],> 16 µg/mL
13,NCCCNCc1ccc(-c2c[nH]c(NC(=O)Nc3ccccc3OC(F)(F)F)nc2=O)cc1Cl [Compound 242],< 16 µg/mL
14,NCCCNCc1ccc(-c2c[nH]c(NC(=O)Nc3cccc(Cl)c3Cl)nc2=O)cc1Cl [Compound 243],< 16 µg/mL
15,NCCCNCc1ccc(-c2c[nH]c(NC(=O)Nc3ccc(OC(F)F)cc3)nc2=O)cc1Cl [Compound 244],> 16 µg/mL
16,NCCCNCc1ccc(-c2c[nH]c(NC(=O)Nc3ccccc3OC(F)(F)F)nc2=O)cc1F [Compound 246],< 16 µg/mL
17,NCc1ccc(-c2c[nH]c(NC(=O)Nc3ccccc3OC(F)(F)F)nc2=O)cc1F [Compound 247],> 16 µg/mL
18,NCc1ccc(-c2c[nH]c(NC(=O)Nc3ccccc3OC(F)(F)F)nc2=O)cc1C(F)(F)F [Compound 248],> 16 µg/mL
19,NCCCNCc1ccc(-c2c[nH]c(NC(=O)Nc3ccc(OC(F)(F)F)cc3)nc2=O)cc1F [Compound 249],< 16 µg/mL
20,NC1CCN(Cc2ccc(-c3c[nH]c(NC(=O)Nc4ccccc4OC(F)(F)F)nc3=O)cc2)CC1 [Compound 251],< 16 µg/mL
21,NCCCNCc1ccc(-c2c[nH]c(NC(=O)Nc3cccc(Cl)c3Cl)nc2=O)cc1F [Compound 252],< 16 µg/mL
22,NCCCNCc1ccc(-c2c[nH]c(NC(=O)NCc3ccc(F)cc3)nc2=O)cc1F [Compound 255],> 16 µg/mL
23,NCCCN(CCCN)Cc1ccc(-c2c[nH]c(NC(=O)Nc3ccccc3OC(F)(F)F)nc2=O)cc1 [Compound 256],< 16 µg/mL
